Test results published in patent US9260393B2, “Solid state forms of N-((S)-2,3-dihydroxy-propyl)-3-(2-fluoro-4-iodo-phenylamino)-isonicotinamide” (Merck Patent GmbH, priority 2012, dated 2016).
Values after ≈ are worked out from the molar mass of the structure shown. “Also recorded” adds a separate entry of the source.

Assays:
Assay type in all cases: physicochemical
[1] = Water Vapour Sorption isotherm (25° C.), DVS-1 System; settings: for water uptake at elevated RH: above 80% RH
Method: (§1) The DSC scan of Form A1 was acquired on a Mettler-Toledo DSC 821 with a heating rate of 5 K/min, using nitrogen purge gas at 50 mL/min. […] Form A1 can be classified as non-hygroscopic according to Ph. Eur. Criteria (section 5.11.).
The DSC scan of Form A2 was acquired on a Mettler-Toledo DSC 821 with a heating rate of 5 K/min, using nitrogen purge gas at 50 mL/min. […] Eur. Criteria (section 5.11.). […]
(§2) Eur. criteria. […] Water Vapour Sorption isotherm was acquired on a DVS-1 System from SMS. • Solubility in USP phosphate buffer (pH 7.4) at 37° C. was determined to be approx. 70 μg/mL (see Example 7).

[2] = Thermodynamic solubility of Forms B1 and B2 in USP Phosphate Buffer (pH 7.4); settings: for Solid-state Residue (X-Ray-Diffraction): #1 + #2
Method: Approximately 17 mg of Compound C (free base) crystalline form B1 were dispersed in 2 mL USP Phosphate Buffer (pH 7.4) in Whatman Uniprep Syringless Filter vials in duplicate preparations.
Approximately 17 mg of Compound C (free base) crystalline form B2 were dispersed in 2 mL USP Phosphate Buffer (pH 7.4) in Whatman Uniprep Syringless Filter vials in duplicate preparations.
(§3) All dispersions were agitated at 37° C. for 24 hours. Dispersions were then filtered via the internal filter of the Uniprep vials, and clear filtrates were analysed by HPLC for dissolved quantities of Compound C.
(§4) Solid state residues were analysed by X-Ray-Diffraction for identity with the initially used materials.

[3] = Thermal behaviour (DSC and TGA); settings: heating rate 5 K/min
Method: as §1
The DSC scan of Form A2 was acquired on a Mettler-Toledo DSC 821 with a heating rate of 5 K/min, using nitrogen purge gas at 50 mL/min. […] Eur. Criteria (section 5.11.).
DSC scan of Form B1 was acquired on a Mettler-Toledo DSC 821 with a heating rate of 5 K/min, using nitrogen purge gas at 50 mL/min. […] Eur. criteria.
as §2

[4] = Solubility determinations of HCl salt forms vs. free base (DI water, 0.1 N HCl); settings: for Solid-state Residue (X-Ray-Diffraction) / Solubility: 37° C., 24 hours
Method: as §3, §4

[5] = Solvent-mediated competitive slurry conversion experiments with binary phase mixtures of Forms B1+B2; settings: RT and 50° C.
Method: Approximately 10 mg of Compound C (free base) crystalline form B1 and approx. 5 mg of Compound C (free base) crystalline form B2 were dispersed in 200-1000 μL solvent in 4-mL glass vials. A PTFE-coated magnetic stirring bar was inserted into the dispersions, and the vials were tightly closed with a screw cap containing a septum. Dispersions were agitated for 5 days on a magnetic stirrer at ambient conditions (˜23° C.) and 50° C., respectively. Dispersions were then vacuum-filtrated over a Whatman paper filter, and collected filter residues were analysed by X-Ray-Diffraction for identity with the initially used materials.

[6] = API dissolution studies in Flow-Through-Cell system; settings: for % dissolved levels after 30 minutes: flow rate 16 mL/min; for dissolution in various buffer systems: 37° C., pH range 1.2 to 6.8
Method: Approximately 10 mg of Forms A1, A2 or B1, respectively, were accurately weighed and blended with 2 g glass beads in a Vortex mixer. The blends were then placed into a powder cell of a Flow-Through-Cell system. Dissolution studies were performed at 37° C. over 30-60 minutes at a constant flow rate of 16 mL/min. Fractions of dissolution medium after passing the Flow-Through-Cell were collected in 1 minute intervals in the first 10 minutes, in 5 minute intervals from 10-30 minutes, and in 15 minute intervals from 30-60 minutes. Dissolved levels of API in each fraction were analysed by HPLC. In dissolution experiments with HCl salt forms at pH 5.0 and pH 6.8, free base fractions which precipitated over time from the initially clear solutions in the collected dissolution fractions were re-dissolved by addition of sulphuric acid prior to HPLC analysis. All experiments were performed as triplicate preparations, with results reported as mean values from triplicates, and error bars as single standard deviations from the triplicates.

[7] = relative humidity (RH) range 0-80% RH
[8] = USP phosphate buffer (pH 7.4), 37° C., 24 hours
[9] = 0.1N HCl, listed as Free Base Form B1
[10] = 0.1N HCl, listed as HCl salt Form A1
[11] = 0.1N HCl, listed as HCl salt Form A2

| SMILES | hygroscopicity (classification acc. to Ph. Eur. criteria, section 5.11.) [1] | water uptake at elevated RH [1] | water uptake levels [1, 7] [wt %] | Solid-state Residue (X-Ray-Diffraction) [2, 8] | thermal stability [3] | Solid-state Residue (X-Ray-Diffraction) ([4]; Water) | aqueous solubility compared to the free base [4] | solubility as compared to forms B1 and B2 [4] | Solubility ([4]; 0.1N HCl) | Solubility ([4]; DI Water) | dissolution kinetics as compared to forms B1 and B2 [6] | dissolution in various buffer systems [6] | also measured |
| --- | --- | --- | --- | --- | --- | --- | --- | --- | --- | --- | --- | --- | --- |
| O=C(NC[C@H](O)CO)c1ccncc1Nc1ccc(I)cc1F [Form B1, N—((S)-2,3-Dihydroxy-propyl)-3-(2-fluoro-4-iodo-phenylamino)-isonicotinamide] | slightly hygroscopic | slightly enhanced | < 1 | Free Base Form B1 | sufficient | Free base Form B1 |  |  |  |  |  |  | solubility at 24 h ([2]; USP phosphate buffer, 37 °C, pH 7.4, aqueous buffer, thermodynamic from solid, USP phosphate buffer (pH 7.4), 24 hours, duplicate preparations #1, #2): ~50 µg/mL (≈ 116 µM); Solid-state Residue (X-Ray-Diffraction) [4, 9]: HCI salt Form A1; Solubility [4, 9]: 17500 µg/mL; Solubility ([4]; DI Water, listed as Free Base Form B1): <100 µg/mL; thermodynamic stability of free base forms B1 vs B2 [5]: thermodynamically more stable free base form; also recorded: thermodynamically stable; thermodynamic stability of free base forms B1 vs B2 ([5]; listed as form B1): more stable form; % dissolved levels after 30 minutes ([6]; pH 1.2, 37° C., listed as Free base Form B1): 100%; % dissolved levels after 30 minutes ([6]; pH 3.0, 37° C., listed as Free base Form B1): 83%; % dissolved levels after 30 minutes ([6]; pH 5.0, 37° C., listed as Free base Form B1): 57%; % dissolved levels after 30 minutes ([6]; pH 6.8, 37° C., listed as Free base Form B1): 52% |
| O=C(NC[C@H](O)CO)c1ccncc1Nc1ccc(I)cc1F [Form A1, N—((S)-2,3-Dihydroxy-propyl)-3-(2-fluoro-4-iodo-phenylamino)-isonicotinamide] | non-hygroscopic; also recorded: slightly hygroscopic |  |  |  | sufficient | Free base Form B1 | significantly improved | higher | approx. 44 mg/mL | approx. 2.8 mg/mL | faster | rapid and complete dissolution | water uptake levels ([1]; entire relative humidity range 0-98% RH): < 0.1 wt %; Solid-state Residue (X-Ray-Diffraction) [4, 10]: HCl salt Form A1; Solubility [4, 10]: 43600 µg/mL; Solubility ([4]; DI Water, listed as HCl salt Form A1): 2800 µg/mL; % dissolved levels after 30 minutes ([6]; pH 1.2, 37° C., listed as HCl Salt Form A1): 100%; % dissolved levels after 30 minutes ([6]; pH 3.0, 37° C., listed as HCl Salt Form A1): 100%; % dissolved levels after 30 minutes ([6]; pH 5.0, 37° C., listed as HCl Salt Form A1): 97%; % dissolved levels after 30 minutes ([6]; pH 6.8, 37° C., listed as HCl Salt Form A1): 96% |
| O=C(NC[C@H](O)CO)c1ccncc1Nc1ccc(I)cc1F [Form B2, N—((S)-2,3-Dihydroxy-propyl)-3-(2-fluoro-4-iodo-phenylamino)-isonicotinamide] | slightly hygroscopic | slightly enhanced | ~1 | Free Base Form B1 | sufficient |  |  |  |  |  |  |  | supersaturated solubility level compared to form B1 ([2]; PBS buffer pH 7.4, 37° C.): increased; Solubility ([2]; USP phosphate buffer (pH 7.4), 37° C., 24 hours, duplicate preparations #1, #2): approx. 70 μg/mL |
| O=C(NC[C@H](O)CO)c1ccncc1Nc1ccc(I)cc1F [Form A2, N—((S)-2,3-Dihydroxy-propyl)-3-(2-fluoro-4-iodo-phenylamino)-isonicotinamide] | slightly hygroscopic |  |  |  | sufficient | Free base Form B1 | significantly improved | higher | > 20000 µg/mL | approx. 2.5 mg/mL | faster | rapid and complete dissolution | Water Vapour Sorption behaviour [1]: small water uptake levels only; Solid-state Residue (X-Ray-Diffraction) [4, 11]: No residue obtained; Solubility [4, 11]: >20000 µg/mL; Solubility ([4]; DI Water, listed as HCl salt Form A2): 2500 µg/mL; % dissolved levels after 30 minutes ([6]; pH 1.2, 37° C., listed as HCl Salt Form A2): 99%; % dissolved levels after 30 minutes ([6]; pH 3.0, 37° C., listed as HCl Salt Form A2): 100%; % dissolved levels after 30 minutes ([6]; pH 5.0, 37° C., listed as HCl Salt Form A2): 98%; % dissolved levels after 30 minutes ([6]; pH 6.8, 37° C., listed as HCl Salt Form A2): 96% |
